These are literature values, as cited in publication PMC10901556, “Conservation of Affinity Rather Than Sequence Underlies a Dynamic Evolution of the Motif-Mediated p53/MDM2 Interaction in Ray-Finned Fishes” (Molecular Biology and Evolution, 2024).

One data set addresses human MDM2. The following applies: ref Åberg et al. (2018); read-out: KD (μM) p53TAD^full-length native (converted); cited from earlier work. From the text: Therefore, we expressed, purified, and subjected a longer p53TAD construct from D. rerio to binding experiments (Fig. 4a).
The target of a further data set is T1, MDM2D.rerio SWIB domain (Danio rerio, UniProt O42354).
T1 construct: NusA-TEV-His6-PreScission (N, cleaved yes); made in house; host or cells: Escherichia coli BL21 (DE3)
T1 sequence (O42354 with tags, fused parts or gaps): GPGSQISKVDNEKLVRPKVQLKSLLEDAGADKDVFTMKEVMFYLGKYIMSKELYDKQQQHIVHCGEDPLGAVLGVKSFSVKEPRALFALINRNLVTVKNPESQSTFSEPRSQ
The conditions noted are these: ref Mihalič et al. 2023; cited from earlier work. From the text:
Abstract The transcription factor and cell cycle regulator p53 is marked for degradation by the ubiquitin ligase MDM2. The interaction between these 2 proteins is mediated by a conserved binding motif in the disordered p53 transactivation domain (p53TAD) and the folded SWIB domain in MDM2. […] The interaction between the proteins is mediated by a conserved binding motif in the intrinsically disordered N-terminal transactivation domain (TAD) of p53 and a SWIB domain in MDM2 (Fig. 1). The interaction leads to MDM2-catalyzed ubiquitination and proteasomal degradation of p53. Phosphorylation of p53TAD increases affinity for the general transcriptional coactivators CBP/p300 a ...

Turning to “H.sap p53 full: expressed full-length human p53 transactivation domain”, the Kd (usually the constant that tells how readily two partners part at equilibrium) at human MDM2 is 0.1 µM.

For the substance “p53TADD.rerio (residues 15 to 26): peptide corresponding to the conserved binding motif in p53TADD.rerio, earlier study (KNLIIQPPGGGS; UniProt P79734 15-26, looked up, fragment)”, the “affinity in binding assay” value with MDM2D.rerio SWIB domain is given as “no affinity”.
